Source: patent US20250195463A1, “ORGANOMETALLIC COMPLEX, CONTROLLED-RELEASE MULTI-FUNCTIONAL DRUG, PHARMACEUTICAL COMPOSITION, PROCESSES FOR THE PREPARATION THEREOF AND THEIR USE” (FACULDADE DE CIÊNCIAS DA UNIVERSIDADE DE LISBOA, priority 2022, published 2025)
pIC50: −log10 of the molar value.

Tests used:
[1] = Stability in organic medium (dimethyl sulfoxide) by UV-Vis spectroscopy; type: physicochemical; details: for Relative variation of the maximum absorbance of the π→π* transitions: band 289-300 nm (λmax in column head); for Relative variation of the maximum absorbance of the charge transfer bands: band 357-425 nm (λmax in column head)
Summary of the method: (§1)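 UV-Vis spectra (270-900 nm) were recorded at intervals from 0 to 24 h, at room temperature in the dark. Solvents were 100% DMSO, or 5% or 10% DMSO in DMEM depending on complex, at 7.0×10^-5 M to 3.0×10^-4 M.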

[2] = Stability in aqueous medium (dimethyl sulfoxide/Dulbecco's Modified Eagle Medium) by UV-Vis spectroscopy; type: physicochemical; details: 5% dimethyl sulfoxide/95% Dulbecco's Modified Eagle Medium; for Relative variation of the maximum absorbance of the π→π* transitions: band 292-296 nm (λmax in column head); for Relative variation of the maximum absorbance of the charge transfer bands: band 358-400 nm (λmax in column head)
Summary of the method: as §1

[3] = system: MDA-MB-231 (FGFR−); experiment: MTT cytotoxicity assay; details: MDA-MB-231
Description: By way of example, the in vitro cytotoxicity of the conjugate RuPC1, complex 4 and peptide P2 was determined in four human breast cancer cell lines with different levels of expression of the receptor FGFR, namely MDA-MB-231 (FGFR−), MCF-7 (FGFR−), SK-BR-3 (FGFR+), and MDA-MB-134-VI (FGFR+). The cytotoxicity of RuPC1 was also determined in the stated cell lines at controlled pH 6.8 and 7.4. The cytotoxicity of the complexes 5, 8, 9, and the reference complex (2,2′-bipyridyl)(triphenylphosphane)(f-cyclopentadienyl)ruthenium(II) trifluoromethanesulfonate, [RuCp(PPh3)(bipy)][CF3SO3] (TM34) was only determined in the cell line MDA-MB-231. All the cell lines were from the American Type Culture Collection (ATCC) and were cultured in Dulbecco's Modified Eagle Medium+Glutamax-I (Gibco) supplemented with 10% fetal bovine serum (FBS) and 1% antibiotics, excepting the MDA-MB-134-VI for which it was used the double amount of FBS. The cell cultures were kept in an incubator Heraeus at 37° C. under humidified atmosphere at 5% CO2. The cell viability was evaluated resorting to the MTT ([3-(4,5-dimethylthiazol-2-yl)-2,5-diphenyltetrazolium bromide]) colorimetric assay, which is based on the reduction of the tetrazolium salt to purple formazan by mitochondrial dehydrogenases in metabolically active cells. For the assays, the cells were seeded in 96-well plates (2×10^4 to 3×10^4 cells/200 μL) and allowed to adhere overnight. The compounds were first dissolved in dimethyl sulfoxide to obtain 10 mM stock solutions, further used to prepare the working solutions, at 0.1 to 100 μM, by dilution in the cell culture medium. Alternatively, for the assays at controlled pH 6.8 and 7.4, RuPC1 was first dissolved in a solution of 15% dimethyl sulfoxide/85% phosphate buffer (10 mM in water) to obtain 1.5 mM stock solutions further incubated for 48 hours at both pH values prior to be used to prepare the working solutions, at 0.1 to 50 μM, by dilution in the cell culture medium. In both cases, after continuous exposure of the cells to the compounds for 48 h at 37° C., the medium was removed and the cells were incubated with 200 μL of MTT solution (0.5 mg/mL) for 3 h. Then, the solution was discarded and the purple formazan formed by the viable cells was dissolved in 200 μL of dimethyl sulfoxide. The cell viability (%) was determined relative to the control (cells incubated without compounds) by measuring the absorbance at 570 nm on a PowerWave Xs Bio-Tek Instruments plate spectrophotometer. The respective values of the half maximal inhibitory concentration (IC50) were calculated with the software GraphPad Prism. All the compounds were tested in at least two independent experiments, each comprising six replicates per concentration.

CCC(=O)C1=C[CH]([Ru-]2([PH](c3ccccc3)(c3ccccc3)c3ccccc3)[n+]3ccccc3-c3cccc[n+]32)C=C1.O=S(=O)([O-])C(F)(F)F (stereo not shown) [compound 8]
0.1%: Relative variation of the maximum absorbance of the charge transfer bands ([1]; time 0.5 h) | Relative variation of the maximum absorbance of the π→π* transitions ([1]; time 1 h) | Relative variation of the maximum absorbance of the π→π* transitions ([2]; time 3 h) | Relative variation of the maximum absorbance of the π→π* transitions ([2]; time 5 h) | Relative variation of the maximum absorbance of the π→π* transitions ([2]; time 6 h)
−0.9%: Relative variation of the maximum absorbance of the charge transfer bands ([2]; time 1 h) | Relative variation of the maximum absorbance of the charge transfer bands ([2]; time 24 h)
0.0%: Relative variation of the maximum absorbance of the π→π* transitions ([1]; time 0 h) | Relative variation of the maximum absorbance of the charge transfer bands ([1]; time 0 h) | Relative variation of the maximum absorbance of the π→π* transitions ([1]; time 0.25 h) | Relative variation of the maximum absorbance of the charge transfer bands ([1]; time 0.25 h) | Relative variation of the maximum absorbance of the π→π* transitions ([1]; time 0.75 h) | Relative variation of the maximum absorbance of the charge transfer bands ([1]; time 0.75 h) | Relative variation of the maximum absorbance of the π→π* transitions ([1]; time 2 h) | Relative variation of the maximum absorbance of the charge transfer bands ([1]; time 3 h) | Relative variation of the maximum absorbance of the charge transfer bands ([1]; time 4 h) | Relative variation of the maximum absorbance of the π→π* transitions ([2]; time 0 h) | Relative variation of the maximum absorbance of the charge transfer bands ([2]; time 0 h) | Relative variation of the maximum absorbance of the π→π* transitions ([2]; time 0.75 h) | Relative variation of the maximum absorbance of the π→π* transitions ([2]; time 2 h) | Relative variation of the maximum absorbance of the π→π* transitions ([2]; time 4 h)
6.25: pIC50 ([3]; read-out: Cytotoxic activity expressed as IC50, Table 5, 48 h, 37° C.)
−0.7%: Relative variation of the maximum absorbance of the charge transfer bands ([2]; time 0.75 h) | Relative variation of the maximum absorbance of the charge transfer bands ([2]; time 2 h)
6.0%: Relative variation of the maximum absorbance of the π→π* transitions ([2]; time 24 h)
−0.3%: Relative variation of the maximum absorbance of the π→π* transitions ([1]; time 3 h) | Relative variation of the maximum absorbance of the charge transfer bands ([1]; time 5 h) | Relative variation of the maximum absorbance of the charge transfer bands ([2]; time 0.25 h)
0.3%: Relative variation of the maximum absorbance of the charge transfer bands ([1]; time 1 h) | Relative variation of the maximum absorbance of the charge transfer bands ([1]; time 6 h)
−0.2%: Relative variation of the maximum absorbance of the π→π* transitions ([1]; time 6 h) | Relative variation of the maximum absorbance of the π→π* transitions ([1]; time 24 h) | Relative variation of the maximum absorbance of the π→π* transitions ([2]; time 0.5 h)
0.2%: Relative variation of the maximum absorbance of the π→π* transitions ([1]; time 0.5 h) | Relative variation of the maximum absorbance of the charge transfer bands ([1]; time 2 h) | Relative variation of the maximum absorbance of the charge transfer bands ([1]; time 24 h)
−0.1%: Relative variation of the maximum absorbance of the π→π* transitions ([1]; time 4 h) | Relative variation of the maximum absorbance of the π→π* transitions ([1]; time 5 h) | Relative variation of the maximum absorbance of the π→π* transitions ([2]; time 0.25 h) | Relative variation of the maximum absorbance of the π→π* transitions ([2]; time 1 h)
sub-micromolar range: IC50 range in words ([3]; Example 24)
−0.6%: Relative variation of the maximum absorbance of the charge transfer bands ([2]; time 0.5 h) | Relative variation of the maximum absorbance of the charge transfer bands ([2]; time 3 h) | Relative variation of the maximum absorbance of the charge transfer bands ([2]; time 4 h) | Relative variation of the maximum absorbance of the charge transfer bands ([2]; time 5 h)
−0.5%: Relative variation of the maximum absorbance of the charge transfer bands ([2]; time 6 h)
